# The source made the active and inactive calls. The rule behind the calls is not given here.
# What was measured:
# Rattus norvegicus = experiment: Anti-inflammatory activity in Sprague-Dawley rat model of CFA-induced rheumatoid arthritis assessed as improvement in joint cavity at 10 mg/kg, po administered daily measured after 19 days by H and E staining based analysis; assay type: functional, organism-based; details: time 19.0 day
# Mus musculus = experiment: Effect on ratio of 5,6-EET to DHET plasma levels in BALB/c mouse model of carrageenan-induced paw edema at 10 mg/kg, po measured after 6 hrs; assay type: functional, organism-based
compound,measurement,setting,value
COc1cc(CC(=O)N2CCC(NC(=O)NCc3ccc(OC(F)(F)F)cc3)CC2)cc(OC)c1,Activity,Rattus norvegicus,Active
same,Activity,Mus musculus,No effect

# Reference: ChEMBL document CHEMBL6109155, “Discovery of Phenylacylpiperidine as Novel sEH Inhibitors through Scaffold Hopping of Natural Stilbene” (J Med Chem, 2025)
